Measurements published in patent US20090082455A1, “THERAPEUTIC AGENT FOR OPHTHALMIC DISEASE” (ONO PHARMACEUTICAL CO. LTED, priority 2005, published 2009).
“Also recorded” adds a separate entry of the source. Where a name gives a salt, the structure may show the parent alone. Read-outs that look alike come from different tables or passages of the source.

Tests used:
Type in all cases: in vivo
GFAP-positive cells = experiment: Rat retinal ischemia model: GFAP-positive cell number and area (GFAP staining); conditions: for Effect on changes in number of GFAP-positive cells / Effect on increases in GFAP positive areas: result in words; for inhibition at 10 mg/kg: Rattus norvegicus, iv; for Number of GFAP positive cells, A2 (mean): point A2 (optic nerve papilla); for Area of GFAP positive cells, A2 (mean): point A2; for Area of GFAP positive cells, A3 (mean) / Number of GFAP positive cells, A3 (mean): point A3; for Area of GFAP positive cells, A4 (mean): point A4 (optic nerve)
Experimental: (§1) A 27 G injection needle (4) was attached to an end of the tube. A part about 20 cm below the bottom end of the perfusion line was attached to a supporting bar and the part was lightly fixed by a stand.
(§2) A rat (Crj:CD(SD) IGS, from CHARLES RIVER LABORATORIES JAPAN, Inc.) was anesthetized with pentobarbital sodium (40 mg/kg, i.p.) and the pupil of the eye to be operated were preliminarily dilated by using a mydriasis agent (MYDRIN P; manufactured by SANTEN PHARMACEUTICAL Co., Ltd.).
(§3) Before the surgical operation, the bottle (1) was held up so that the water surface in the perfusion bottle was located on 163.5 cm above the rat eyes in the state of closing the perfusion line (loading an intraocular pressure of […]). After opening the top end, the perfusion line was connected to a differential pressure transducer and the height was adjusted to give a predetermined pressure, followed by closing the line. With confirming the mydriasis under a stereoscopic microscope, the stopper of the perfusion line was loosened and the solution was dropped little by little from the needle point. As the cornea was tightly sandwiched between tweezers and an injection needle (4), the injection needle (4) was punctured into the anterior chamber (5) from the nasal side. Next, the perfusion line was opened to load pressure in the anterior chamber (5). After loading the ischemia for 60 minutes, the injection needle (4) was taken off and the animals were awaken out of the anesthesia with keeping the body temperature at 37° C. In the sham-ischemia group, an injection needle was punctured into the anterior chamber from the nasal side in the state of closing the perfusion line, followed by taking off after 60 minutes.
(§4) (2R)-2-propyloctanoic acid was intravenously administered via the tail vein in a dose of 10 mg/mL/kg once a day for 7 days from the day of the ischemic operation. Dizocilpine maleate ((+)-MK-801 maleate, hereinafter referred to simply as “MK-801”) which is a positive control compound was intravenously administered via the tail vein in a dose of 10 mg/mL/kg once alone 30 minutes before the ischemic operation.
(§5) A rat was anesthetized with pentobarbital sodium (40 mg/kg, i.p.) and fixed at the dorsal position. After incising the subcostal skin, with grasping the xiphoid process with tweezers or a kocher, the upper end of the anterior abdominal muscle was horizontally incised with scissors. Next, after reversing the chest wall, the xiphoid process was grasped with a kocher or the chest wall was grasped with a kocher to expose the heart. The heart was grasped with tweezers and the left ventricular was incised with scissors. Then, the front end of a disposable oral probe for mouse connected to a blood transfusion tube was introduced from the left ventricular to the aorta and the end of the oral probe was grasped with a clamp. The atrial auricula was incised and perfused with physiological saline containing heparin (10 U/mL). The blood transfusion tube and the disposable oral probe for mouse were replaced with fresh ones and perfusion with a 10% neutral formalin buffer was conducted in the same manner as described above for fixation. After fixing, both eyes were taken out, stored in a sample bottle filled with the 10% neutral formalin buffer and subjected to the following evaluation.
(§6) An ischemic eye was excised, embedded and sliced. Next, hematoxylin-eosin staining, GFAP (glial fibrillary acidic protein) staining and S100 staining by the methods as shown in the following (5-2) to (5-4) were carried out.
An anti-GFAP rabbit antibody (cat No. Z0334, DAKO) was used. […]

GCL cells = experiment: Rat retinal ischemia model: number of GCL cells (HE staining); conditions: 10 mg/kg i.v.; for Effect on decrease in number of optic nerve cells / optic nerve cell death caused by ischemia: result in words; for Number of GCL cells, A1 (mean): retina point A1, 2 mm from optic nerve papilla; for Number of GCL cells, A1 (mean) / Number of GCL cells, A3 (mean) / Number of GCL cells, A1 + A3 (mean): 60 min ischemia; for Number of GCL cells, A3 (mean): retina point A3, 2 mm from optic nerve papilla; for Number of GCL cells, A1 + A3 (mean): sum of A1 and A3; for Inhibitory rate of decrease in number of optic nerve cells, A1+A3: sum of A1 and A3 data
Experimental: as §1, §2, §3, §4, §5, §6
(1) deparaffinization; (2) water washing; (3) nuclear staining with hematoxylin for 20 minutes; (4) water washing and color development for 10 minutes; (5) eosin for 3 minutes; and (6) dehydration→penetration→enclosure.
Using HE-stained samples thus obtained, GCL cells at two points (A1, A3; refer to FIG. 2) on the retina which are 2 mm apart from the optic nerve papilla (A2) were counted (cells/mm^2).

S100-positive cells = experiment: Rat retinal ischemia model: S100-positive cell number and area (S100 staining); conditions: for Effect on increases in S100 positive areas / Effect on changes in number of S100-positive cells: result in words; for Effect on changes in number of S100-positive cells: A2 and A4 points; for inhibition at 10 mg/kg: Rattus norvegicus, S100, iv; for Area of S100 positive cells, A1 (mean): point A1; for Area of S100 positive cells, A2 (mean) / Number of S100 positive cells, A2 (mean): point A2; for Area of S100 positive cells, A3 (mean): point A3; for Area of S100 positive cells, A4 (mean) / Number of S100 positive cells, A4 (mean): point A4 (optic nerve)
Experimental: as §1, §2, §3, §4, §5, §6
An anti-S 100 rabbit antibody (cat No. Z0311, DAKO) was used. […]

[1] = Single intravenous administration toxicity test in dogs; conditions: 100 mg/kg, single i.v.
Source text: Since toxicity of (2R)-2-propyloctanoic acid, a salt thereof or prodrug thereof is low, it can be considered to be sufficiently safe for medicinal uses.

SMILES | Effect on changes in number of GFAP-positive cells (GFAP-positive cells; 10 mg/kg i.v.) | Effect on increases in GFAP positive areas (GFAP-positive cells; 10 mg/kg i.v.) | Area of GFAP positive cells, A1 (mean) (GFAP-positive cells; point A1, 10 mg/kg i.v.) [% AREA] | Number of GFAP positive cells, A1 (mean) (GFAP-positive cells; point A1, 10 mg/kg i.v.) [cells/mm^2] | Number of GFAP positive cells, A2 (mean) (GFAP-positive cells; 10 mg/kg i.v.) [cells/mm^2] | Area of GFAP positive cells, A2 (mean) (GFAP-positive cells; 10 mg/kg i.v.) [% AREA] | Area of GFAP positive cells, A3 (mean) (GFAP-positive cells; 10 mg/kg i.v.) [% AREA] | Number of GFAP positive cells, A3 (mean) (GFAP-positive cells; 10 mg/kg i.v.) [cells/mm^2] | Area of GFAP positive cells, A4 (mean) (GFAP-positive cells; 10 mg/kg i.v.) [% AREA] | Effect on decrease in number of optic nerve cells / optic nerve cell death caused by ischemia (GCL cells) | Number of GCL cells, A1 (mean) (GCL cells) [cells/mm^2] | Number of GCL cells, A3 (mean) (GCL cells) [cells/mm^2] | Number of GCL cells, A1 + A3 (mean) (GCL cells) [cells/mm^2] | Inhibitory rate of decrease in number of optic nerve cells, A1+A3 (GCL cells) [%] | Effect on increases in S100 positive areas (S100-positive cells; 10 mg/kg i.v.) | Effect on changes in number of S100-positive cells (S100-positive cells; 10 mg/kg i.v.) | Area of S100 positive cells, A1 (mean) (S100-positive cells; 10 mg/kg i.v.) [% AREA] | Area of S100 positive cells, A2 (mean) (S100-positive cells; 10 mg/kg i.v.) [% AREA] | Number of S100 positive cells, A2 (mean) (S100-positive cells; 10 mg/kg i.v.) [cells/mm^2] | Area of S100 positive cells, A3 (mean) (S100-positive cells; 10 mg/kg i.v.) [% AREA] | also measured
CCCCCC[C@@H](CCC)C(=O)O [(2R)-2-propyloctanoic acid] | showed inhibitory effects | showed inhibitory effects | 4.2 | 52.6 | 317.9 | 10.1 | 4.2 | 52.9 | 16.8 | showed inhibitory effects; also recorded: remarkable effect of inhibiting optic nerve cell death | 116.4 | 129.9 | 246.3 | 52.1 | showed inhibitory effects | showed an inhibitory effect | 1.9 | 3.5 | 295.4 | 1.6 | inhibition at 10 mg/kg (GFAP-positive cells; point A1, 10 mg/kg i.v., read-out: Inhibitory rate of change in number of GFAP-positive cells at point A1): 69%; inhibition at 10 mg/kg (GFAP-positive cells; point A1 as printed, 10 mg/kg i.v., read-out: Inhibitory rate of increase in GFAP positive area at the point A1): 87.8%; inhibition at 10 mg/kg (S100-positive cells; point A4, 10 mg/kg i.v., read-out: Inhibitory rate of increase in S100 positive area at point A4): 93.9%; inhibition at 10 mg/kg (S100-positive cells; point A4, 10 mg/kg i.v., read-out: Inhibitory rate of increase in number of S100-positive cells at point A4): 31.2%; Area of S100 positive cells, A4 (mean) (S100-positive cells; 10 mg/kg i.v.): 3.3 % AREA; Number of S100 positive cells, A4 (mean) (S100-positive cells; 10 mg/kg i.v.): 307.7 cells/mm^2; Lethality after single intravenous administration [1]: no fatal case was observed
C[C@]12N[C@H](Cc3ccccc31)c1ccccc12 [MK-801, Dizocilpine maleate, reference compound] | showed inhibitory effects | showed inhibitory effects | 3.4 | 47.8 | 275.3 | 11.0 | 3.6 | 56.8 | 17.9 | showed inhibitory effects | 125.1 | 134.9 | 260.0 | 59.5 | showed inhibitory effects | showed an inhibitory effect exclusively on the increase in the number of S100-positive cells at the A2 point | 1.9 | 3.8 | 212.9 | 2.1 | inhibition at 10 mg/kg (GFAP-positive cells; read-out: Inhibitory rate of change in number of GFAP-positive cells at point A1): 42.9%; inhibition at 10 mg/kg (GFAP-positive cells; read-out: Inhibitory rate of increase in GFAP positive area at the point A1): 78.3%; inhibition at 10 mg/kg (S100-positive cells; read-out: Inhibitory rate of increase in S100 positive area at point A4): 51.2%; Area of S100 positive cells, A4 (mean) (S100-positive cells; 10 mg/kg i.v.): 6.8 % AREA; Number of S100 positive cells, A4 (mean) (S100-positive cells; 10 mg/kg i.v.): 600.2 cells/mm^2
